Measured values published in US9340537B2, “Benzamide derivatives for inhibiting the activity of ABL1, ABL2 and BCR-ABL1” (NOVATIS AG, priority 2012, dated 2016).
Where two headings read alike, the source gives them in different places.

Columns and labels:
[1] = system: Ba/F3-BCR-ABL1-WT cells; experiment: Proliferation assay Ba/F3-BCR-ABL1-WT cells; assay type: cell-based, murine; conditions: Mus musculus
[2] = system: Ba/F3-BCR-ABL1-T315I cells; experiment: Proliferation assay Ba/F3-BCR-ABL1-T315I cells; assay type: cell-based, murine; conditions: Mus musculus
[3] = target: T1, ABL1 (64-515) (Homo sapiens (Human), UniProt P00519); experiment: Caliper ABL1 (64-515) microfluidic mobility shift kinase assay; conditions: read-out: Caliper ABL1 (64-515) IC50
[4] = target: T1, ABL1 (64-515); experiment: Radio ABL1 (64-515) radiometric filter-binding kinase assay; assay type: biochemical; conditions: 20 μM ATP
[5] = 48 hours, Britelite luminescence, read-out: Ba/F3-BCR-ABL1-WT IC50
[6] = 48 hours, Britelite luminescence, read-out: Ba/F3-BCR-ABL1-T315I IC50

T1 sequence (P00519 64-515): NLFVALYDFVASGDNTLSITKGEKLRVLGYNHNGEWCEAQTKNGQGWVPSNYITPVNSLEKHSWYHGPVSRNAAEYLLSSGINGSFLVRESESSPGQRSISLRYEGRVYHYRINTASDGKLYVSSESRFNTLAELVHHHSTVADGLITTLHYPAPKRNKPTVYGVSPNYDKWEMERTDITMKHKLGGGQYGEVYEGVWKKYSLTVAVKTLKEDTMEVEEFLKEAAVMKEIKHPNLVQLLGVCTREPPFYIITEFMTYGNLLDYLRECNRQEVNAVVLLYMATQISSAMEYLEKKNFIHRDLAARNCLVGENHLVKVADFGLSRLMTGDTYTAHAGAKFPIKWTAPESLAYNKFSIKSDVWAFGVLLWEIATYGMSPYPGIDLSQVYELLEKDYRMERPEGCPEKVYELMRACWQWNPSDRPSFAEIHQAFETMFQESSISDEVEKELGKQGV

| IC50 [3] [nM] | IC50 [4] [nM] | SMILES | IC50 ([1]; 48 h, read-out: Ba/F3-BCR-ABL1-WT IC50 [μM]) [µM] | IC50 ([2]; 48 h, read-out: Ba/F3-BCR-ABL1-T315I IC50 [μM]) [µM] | IC50 [1, 5] [µM] | IC50 [2, 6] [µM] |
| --- | --- | --- | --- | --- | --- | --- |
| – | – | C[C@@]1(O)CCN(c2ncc(C(=O)Nc3ccc(OC(F)(F)F)cc3)cc2-c2ccn[nH]2)C1 [Example 14, (R)-6-(3-Hydroxy-3-methylpyrrolidin-1-yl)-5-(1H-pyrazol-5-yl)-N-(4-(trifluoromethoxy)phenyl)nicotinamide] | 0.0048 | 0.134 | – | – |
| – | < 3 | O=C(Nc1ccc(OC(F)(F)F)cc1)c1cnc(N2CC[C@@H](O)C2)c(-c2ccoc2)c1 [Example 7, (R)-5-(Furan-3-yl)-6-(3-hydroxypyrrolidin-1-yl)-N-(4-(trifluoromethoxy)phenyl)nicotinamide] | – | – | 0.0059 | 0.674 |
| 0.7 | – | O=C(Nc1ccc(OC(F)(F)Cl)cc1)c1ccc(N2C[C@H](O)[C@@H](O)C2)c(-c2ccn[nH]2)c1 [Example 77, N-(4-(Chlorodifluoromethoxy)phenyl)-4-((3S,4S)-3,4-dihydroxypyrrolidin-1-yl)-3-(1H-pyrazol-5-yl)benzamide] | – | – | 0.0041 | 0.075 |
| 2.9 | 1 | O=C(Nc1ccc(OC(F)(F)Cl)cc1)c1cnc(N2CCNC3(CC3)C2)c(-c2ccn[nH]2)c1 [Example 56, N-(4-(Chlorodifluoromethoxy)phenyl)-5-(1H-pyrazol-5-yl)-6-(4,7-diazaspiro[2.5]octan-7-yl)nicotinamide] | – | – | – | – |
| < 0.64 | 1 | O=C(Nc1ccc(OC(F)(F)Cl)cc1)c1cnc(N2CCN(CC(F)(F)F)CC2)c(-c2ccn[nH]2)c1 [Example 60, N-(4-(Chlorodifluoromethoxy)phenyl)-5-(1H-pyrazol-5-yl)-6-(4-(2,2,2-trifluoroethyl)piperazin-1-yl)nicotinamide] | – | – | – | – |
| 3.6 | 4 | CO[C@H]1CN(c2ncc(C(=O)Nc3ccc(OC(F)(F)F)cc3)cc2-c2ccn[nH]2)C[C@@H]1N (relative stereo) [Example 78, 6-(trans-3-Amino-4-methoxypyrrolidin-1-yl)-5-(1H-pyrazol-5-yl)-N-(4-(trifluoromethoxy)phenyl)nicotinamide] | – | – | – | – |
| 0.2 | 4 | NC1CN(c2ncc(C(=O)Nc3ccc(OC(F)(F)Cl)cc3)cc2-c2ccn[nH]2)C1 [Example 64, 6-(3-Aminoazetidin-1-yl)-N-(4-(chlorodifluoromethoxy)phenyl)-5-(1H-pyrazol-5-yl)nicotinamide] | – | – | – | – |
| 1.1 | 4.9 | NCC1(F)CCN(c2ncc(C(=O)Nc3ccc(OC(F)(F)Cl)cc3)cc2-c2ccn[nH]2)C1 (centres unmarked) [Example 51, 6-(3-(Aminomethyl)-3-fluoropyrrolidin-1-yl)-N-(4-(chlorodifluoromethoxy)phenyl)-5-(1H-pyrazol-5-yl)nicotinamide] | – | – | – | – |
| < 0.13 | 2 | O=C(Nc1ccc(OC(F)(F)Cl)cc1)c1cnc(N2CC3(CNC3)C2)c(-c2ccn[nH]2)c1 [Example 68, N-(4-(Chlorodifluoromethoxy)phenyl)-5-(1H-pyrazol-5-yl)-6-(2,6-diazaspiro[3.3]heptan-2-yl)nicotinamide] | – | – | – | – |
| 0.4 | 1 | NC12CC1CN(c1ncc(C(=O)Nc3ccc(OC(F)(F)Cl)cc3)cc1-c1ccn[nH]1)C2 (centres unmarked) [Example 54, 6-(1-Amino-3-azabicyclo[3.1.0]hexan-3-yl)-N-(4-(chlorodifluoromethoxy)phenyl)-5-(1H-pyrazol-5-yl)nicotinamide] | – | – | – | – |
| 0.4 | 1 | N#Cc1ccc(-c2cc(C(=O)Nc3ccc(OC(F)(F)Cl)cc3)cnc2N2C[C@H](O)[C@@H](O)C2)[nH]1 [Example 46, N-(4-(Chlorodifluoromethoxy)phenyl)-5-(5-cyano-1H-pyrrol-2-yl)-6-((3S,4S)-3,4-dihydroxypyrrolidin-1-yl)nicotinamide] | – | – | – | – |
| 0.7 | 1 | CO[C@H]1CN(c2ncc(C(=O)Nc3ccc(OC(F)(F)Cl)cc3)cc2-c2ccn[nH]2)C[C@@H]1N (relative stereo) [Example 79, 6-(trans-3-Amino-4-methoxypyrrolidin-1-yl)-N-(4-(chlorodifluoromethoxy)phenyl)-5-(1H-pyrazol-5-yl)nicotinamide] | – | – | – | – |
| 0.8 | < 3 | O=C(Nc1ccc(OC(F)(F)F)cc1)c1cnc(N2CCCC2)c(-c2ccn[nH]2)c1 [Example 15, 5-(1H-Pyrazol-5-yl)-6-(pyrrolidin-1-yl)-N-(4-(trifluoromethoxy)phenyl)nicotinamide] | – | – | – | – |
| 4.2 | 3 | O=C(Nc1ccc(OC(F)(F)F)cc1)c1ccc(N2C[C@H](O)[C@@H](O)C2)c(-c2ccc[nH]2)c1 [Example 28, 4-((3S,4S)-3,4-Dihydroxypyrrolidin-1-yl)-3-(1H-pyrrol-2-yl)-N-(4-(trifluoromethoxy)phenyl)benzamide] | – | – | – | – |
| 0.5 | < 0.1 | N#Cc1ccc(-c2cc(C(=O)Nc3ccc(OC(F)(F)F)cc3)ccc2N2C[C@H](O)[C@@H](O)C2)[nH]1 [Example 29, 3-(5-Cyano-1H-pyrrol-2-yl)-4-((3S,4S)-3,4-dihydroxypyrrolidin-1-yl)-N-(4-(trifluoromethoxy)phenyl)benzamide] | – | – | – | – |
| 3.4 | 3 | N[C@@H]1CN(c2ncc(C(=O)Nc3ccc(OC(F)(F)Cl)cc3)cc2-c2ccn[nH]2)C[C@H]1F (relative stereo) [Example 52, 6-(trans-3-Amino-4-fluoropyrrolidin-1-yl)-N-(4-(chlorodifluoromethoxy)phenyl)-5-(1H-pyrazol-5-yl)nicotinamide] | – | – | – | – |
| < 0.13 | < 0.1 | N#Cc1ccc(-c2cc(C(=O)Nc3ccc(OC(F)(F)F)cc3)cnc2N2C[C@H](O)[C@@H](O)C2)[nH]1 [Example 31, 5-(5-Cyano-1H-pyrrol-2-yl)-6-((3S,4S)-3,4-dihydroxypyrrolidin-1-yl)-N-(4-(trifluoromethoxy)phenyl)nicotinamide] | – | – | – | – |
| 1.6 | 0.9 | Cn1c(C#N)ccc1-c1cc(C(=O)Nc2ccc(OC(F)(F)Cl)cc2)cnc1N1CC[C@@H](O)C1 [Example 47, (R)—N-(4-(Chlorodifluoromethoxy)phenyl)-5-(5-cyano-1-methyl-1H-pyrrol-2-yl)-6-(3-hydroxypyrrolidin-1-yl)nicotinamide] | – | – | – | – |
| 1.5 | 8 | CN(C)C1CN(c2ncc(C(=O)Nc3ccc(OC(F)(F)F)cc3)cc2-c2ccn[nH]2)C1 [Example 38, 6-(3-(Dimethylamino)azetidin-1-yl)-5-(1H-pyrazol-5-yl)-N-(4-(trifluoromethoxy)phenyl)nicotinamide] | – | – | – | – |
| 3.3 | 26 | O=C(Nc1ccc(OC(F)(F)Cl)cc1)c1cnc(N2CCN(CC(F)F)CC2)c(-c2ccn[nH]2)c1 [Example 59, N-(4-(Chlorodifluoromethoxy)phenyl)-6-(4-(2,2-difluoroethyl)piperazin-1-yl)-5-(1H-pyrazol-5-yl)nicotinamide] | – | – | – | – |
| < 0.13 | 0.4 | NC[C@H]1CN(c2ncc(C(=O)Nc3ccc(OC(F)(F)Cl)cc3)cc2-c2ccn[nH]2)C[C@H]1O (relative stereo) [Example 80, 6-(cis-3-(Aminomethyl)-4-hydroxypyrrolidin-1-yl)-N-(4-(chlorodifluoromethoxy)phenyl)-5-(1H-pyrazol-5-yl)nicotinamide] | – | – | – | – |
| 0.9 | 5.6 | CN(C)C1CN(c2ncc(C(=O)Nc3ccc(OC(F)(F)Cl)cc3)cc2-c2ccn[nH]2)C1 [Example 65, N-(4-(Chlorodifluoromethoxy)phenyl)-6-(3-(dimethylamino)azetidin-1-yl)-5-(1H-pyrazol-5-yl)nicotinamide] | – | – | – | – |
| 1.4 | 3 | N[C@H]1CN(c2ccc(C(=O)Nc3ccc(OC(F)(F)Cl)cc3)cc2-c2ccn[nH]2)C[C@@H]1O [Example 76, 4-((3S,4S)-3-Amino-4-hydroxypyrrolidin-1-yl)-N-(4-(chlorodifluoromethoxy)phenyl)-3-(1H-pyrazol-5-yl)benzamide] | – | – | – | – |
| 0.8 | 2 | Cc1cc(-c2cc(C(=O)Nc3ccc(OC(F)(F)Cl)cc3)ccc2N2C[C@H](N)[C@@H](O)C2)[nH]n1 [Example 84, 4-((3S,4S)-3-Amino-4-hydroxypyrrolidin-1-yl)-N-(4-(chlorodifluoromethoxy)phenyl)-3-(3-methyl-1H-pyrazol-5-yl)benzamide] | – | – | – | – |

| SMILES | IC50 [3] [nM] | IC50 [4] [nM] | IC50 ([1]; 48 h, read-out: Ba/F3-BCR-ABL1-WT IC50 [μM]) [µM] | IC50 ([2]; 48 h, read-out: Ba/F3-BCR-ABL1-T315I IC50 [μM]) [µM] | IC50 [1, 5] [µM] | IC50 [2, 6] [µM] |
| --- | --- | --- | --- | --- | --- | --- |
| Cc1cnc(-c2cc(C(=O)Nc3ccc(OC(F)(F)F)cc3)cnc2N2CC[C@@H](O)C2)[nH]1 [Example 72, (R)-6-(3-Hydroxypyrrolidin-1-yl)-5-(5-methyl-1H-imidazol-2-yl)-N-(4-(trifluoromethoxy)phenyl)nicotinamide] | 4.2 | – | – | – | 0.0045 | 0.074 |
| O=C(Nc1ccc(OC(F)(F)Cl)cc1)c1cnc(N2CC[C@@H](O)C2)c(-c2ncc[nH]2)c1 [Example 71, (R)—N-(4-(Chlorodifluoromethoxy)phenyl)-6-(3-hydroxypyrrolidin-1-yl)-5-(1H-imidazol-2-yl)nicotinamide] | 0.4 | – | – | – | 0.0011 | 0.008 |
| O=C(Nc1ccc(OC(F)(F)F)cc1)c1cnc(N2CC[C@@H](O)C2)c(-c2ncc[nH]2)c1 [Example 70, (R)-6-(3-Hydroxypyrrolidin-1-yl)-5-(1H-imidazol-2-yl)-N-(4-(trifluoromethoxy)phenyl)nicotinamide] | 6.4 | – | – | – | 0.0058 | 0.106 |
| CN(C)C(=O)c1ccc(-c2cc(C(=O)Nc3ccc(OC(F)(F)Cl)cc3)cnc2N2CC[C@@H](O)C2)[nH]1 [Example 73, (R)—N-(4-(Chlorodifluoromethoxy)phenyl)-5-(5-(dimethylcarbamoyl)-1H-pyrrol-2-yl)-6-(3-hydroxypyrrolidin-1-yl)nicotinamide] | 1.1 | – | – | – | 0.0004 | 0.007 |
